Laboratory results taken from the NIST ThermoML archive (doi:10.1021/je800071q).
± gives the expanded uncertainty stated by the source.

Tests used:
[1] = refractive index (Na D-line) (dimensionless); conditions: 298.1 K, 101.33 kPa, Liquid
[2] = 101.33 kPa, Liquid; for mass density: 298.1 K; for viscosity: 298.15 K
[3] = Capillary tube (Ostwald / Ubbelohde) method

| refractive index ([1]; Standard Abbe refractometry) | mass density ([2]; Vibrating tube method) [kg/m3] | SMILES | refractive index [1] | mass density [2] [kg/m3] | viscosity [2] [mPa·s] | viscosity [2, 3] [mPa·s] |
| --- | --- | --- | --- | --- | --- | --- |
|  |  | CCCCCCCCn1cc[n+](C)c1.O=S(=O)([N-]S(=O)(=O)C(F)(F)F)C(F)(F)F | 1.4327 ± 0.00089 | 1319.78 ± 4.3 | 90.37 ± 4.8 |  |
| 1.38921 ± 0.00041 | 687.84 ± 0.23 | CC(C)CC(C)(C)C [2,2,4-trimethylpentane] |  |  |  |  |
| 1.5253 ± 0.00041 | 1058.59 ± 0.14 | c1ccsc1 [thiophene] |  |  |  | 0.612 ± 0.007 |

| SMILES | refractive index ([1]; Standard Abbe refractometry) | mass density ([2]; Vibrating tube method) [kg/m3] | refractive index [1] | mass density [2] [kg/m3] | viscosity [2] [mPa·s] | viscosity [2, 3] [mPa·s] |
| --- | --- | --- | --- | --- | --- | --- |
| Cc1ccccc1 [toluene] | 1.49393 ± 0.00041 | 862.2 ± 0.16 |  |  |  | 0.577 ± 0.007 |
